Source: patent US10959998B2, “Pharmaceutical use and pharmaceutical composition of pyrroloquinoline quinine, its derivatives and/or its salts” (priority 2015, dated 2021)

Legend:
[1] = test system: ectopic endometrial foci; assay: Endometriosis rat model, weight of transplanted foci; assay type: in vivo, SD rats; conditions: for weight of ectopic endometrial foci compared with the control group / weight of cysts after treatment (mg) Mean ± SD: Example 5, rats; for weight of cysts after treatment (mg) Mean ± SD: water feeding 4 week, PQQ 1 mg/kg, NAC 10 mg/kg, Resveratro 10 mg/kg, n=9
[2] = test system: ectopic endometrial stromal cells; conditions: NAC 10 mM, report of Ngo et al. 2009; cited from earlier work
[3] = test system: ectopic endometrial stromal cells; assay: MTT cell proliferation of ectopic endometrial stromal cells; assay type: cell-based, human
Method: Endometrial tissues were surgically isolated from patients with chocolate cyst of ovary, washed 2 to 3 times with PBS supplemented with antibiotics in ultra-clean cabinet, and cut into tiny pieces (about 1 mm^3 in size) with aseptic scissors. The tissues were digested with 1 mg/ml collagenase type I for 30 to 90 min at 37° C., and continually digested with Dnase I (final concentration of 15 U/ml, 2% Dnase I) for another 30 min. The digested tissues were filtered thorough 60-mesh stainless steel filter cell strainer to remove the undigested cell tissues, and were further filtered with 200- or 400-mesh strainer. The filtered solution was centrifuged at 1000 rpm for 5 min. After removing the supernatants, the cells were washed once with culture medium compounded by DMEM/F12 (1:1 v/v) and 10% fetal bovine serum, re-suspended in the culture medium, and seeded in 6-well tissue culture plate or T25 tissue culture flasks with an appropriate density. After 24 hours incubation, the culture medium was changed to remove the non-adherent blood cells, endothelial cells, macrophages and other miscellaneous cells. After primary human endometrial stromal cells were grown to reach 90% confluence, the cells were digested with 0.25% trypsin for 4 to 6 min, and then subcultured with a split ratio of 1:2 to 1:3. Vimentin which expresses specifically in stromal cells was detected by immuno-fluorescence to measure the cell purity. The cells of purity >95% were used in the following experiments. Primary ectopic endometrial stromal cells of human were subcultured and the subcultured cells of the 3th to 6th passages were chosen as experimental subjects. The cells in logarithmic growth phase were […] and incubated in the cell culture plate at a density of 50%˜60% (i.e. 2×10^4 cells/well). After growing adherent on the wall for 24 hours, the cultured cells were divided into groups and each group was given different doses of PQQ. 20 μL MTT (5 mg/ml in PBS, pH=7.4) was added to each well at indicated time points. The cells were incubated in an incubator at 37° C. in a 5% CO2 atmosphere for 4 h. At the end of incubation, the culture supernatant in each cell was carefully aspirated away. 150 μL DMSO was added to each well. Then the wells were shaken with Orbital shaker for 10 min. The absorbance of each cell was detected at wavelength 490 nm. Finally, the cell proliferation curve was drawn. Primary ectopic endometrial stromal cells were cultured and the subcultured cells of the 3th to 6th passage were chosen as experimental subjects. The cells in logarithmic growth phase were […] and incubated in the cell culture plate at a of 50%˜60% (e.g. 2×10^4 cells/well). The cells grew adhering to the wall for 24 hours before being treated with drugs. The cells were divided into groups and each group was given different dose of PQQ. At indicated time point, 20 μL […] (5 mg/ml in PBS, pH=7.4) was added to every well. The cells were then incubated in an incubator at 37° C. in a 5% CO2 atmosphere for 4 h. After terminating incubation, the culture supernatant in each cell was carefully aspirated away, but formazan crystals should not be aspirated away in any case. 150 μL DMSO was added to each well respectively. All the wells were shaken with Orbital shaker for 10 min to make the crystals adequately solubilized. The absorbance of each cell was detected at wavelength 490 nm. Finally, the cell proliferation curve was drawn.

[4] = test system: cysts of EM patients; conditions: after three months of treatment with NAC; cited from earlier work
[5] = test system: infiltration of endometrial stroma and glands into myometrium; assay: Adenomyosis mouse model created with tamoxifen, pathological section; assay type: in vivo, mice
Method: Disodium salt of PQQ was used in the present experiment (PQQ-Na2, donated by MITSUBISHI gas chemical (MGC), Japan). The salt was dissolved with water and the concentration of its mother liquid is 1 mg/mL.
In the present Example, the mouse model of adenomyosis was created with tamoxifen. This method is easy to operate, the rate of molding can reach 100%, and the difference between the model mouses caused by the operation is small. At 2˜5 days after birth (the birth day was the first day), the mice were fed with 5 ul/(g·BW) peanut oil/lecithin/condensed milk mixture (volume ratio 2:0.2:3) supplemented with 0.2 mg/ml tamoxifen (produced by shanghai Fudan Fuhua Pharmaceutical Co, Ltd.) by drip feeding. In the negative control group, the mice were fed with peanut oil/lecithin/condensed milk mixture (volume ratio 2:0.2:3), with no tamoxifen added. All the mice were exposed to light for 12 h/day, and were reared by maternal lactation during 1-21 days of age. After 22 days of birth, the mice were separated with mother mice, and the female mice were reserved for the next experiment.
After 3 months, 7 model mice were killed after anesthesia. […] The remaining model mice were divided into 5 groups with 20 mice in each group. One of the groups was chosen as model control group (fed with normal water). The drinking water for other group were supplemented with PQQ (1 mg/kg/day), NAC (10 mg/kg/day), PQQ (1 mg/kg/day) +NAC (10 mg/kg/day) (denoted by P+N (H)); PQQ (0.2 mg/kg/day) +NAC (5 mg/kg/day) (denoted by P+N (L)).
After treatment with drugs for 4 weeks, the mice were killed by anesthesia. The uterus was surgically removed and the invasion of endometria into myometrium was analyzed by the pathological section.

[6] = test system: EM lesions; conditions: cited from earlier work; for lesion of EM model mice: Ricci et al. 2013, by antioxidation effect
[7] = 4 weeks in drinking water, PQQ (disodium salt) 1 mg/kg/day, NAC 10 mg/kg/day, P+N (H) 1+10, P+N (L) 0.2+5 mg/kg/day

Compound	weight of ectopic endometrial foci compared with the control group ([1]; after 4 weeks treatment)	weight of cysts after treatment (mg) Mean ± SD [1] [mg]	weight of ectopic cys after treatment (mg) Mean ± SD ([1]; Example 7, rats, 4 weeks in drinking water, PQQ (disodium salt) 1 mg/kg/day, NAC 10 mg/kg/day, P+N (H) 1+10, P+N (L) 0.2+5 mg/kg/day, n=12) [mg]	weight of ectopic cyst compared with model control group ([1]; Example 7, rats, after 4 weeks treatment, PQQ as disodium salt)	proliferation of ectopic endometrial stromal cells [2]	cell proliferation ([3]; NAC 10 um alone)	cell proliferation ([3]; NAC 100 um alone)	cysts sizes within EM patients [4]	infiltration of endometrial glands, positive animals/total animals [5, 7]	infiltration of endometrial stroma, positive animals/total animals [5, 7]	number of animals with infiltration of endometrial stroma and glands compared with model control group ([5]; after 4 weeks treatment, PQQ as disodium salt)	growth of EM lesions ([6]; mouse models of endometriosis, NAC daily dose 1.3 g/kg/day)	lesion of EM model mice [6]
CC(=O)N[C@@H](CS)C(=O)O [NAC, N-acetyl-L-cysteine]	no evident difference from that of the control group	138.1 ± 33.1	142.1 ± 13.4	no obvious difference with the control group	inhibit the proliferation of ectopic endometrial stromal cells	no evident effect	effectively inhibit the cell proliferation	cysts sizes within EM patients were reduced significantly	18/20	19/20	no obvious difference with the control group	significantly inhibit the growth of EM lesions	
Oc1ccc(C=Cc2cc(O)cc(O)c2)cc1 [Res, Resveratrol]	no evident difference from that of the control group	122.1 ± 30.7											effectively inhibit the lesion of EM model mice
Epigallocatechin-3-gallate [EGCG]													effectively inhibit the lesion of EM model mice
